Experiments:
Alternaria alternata = Alternaria alternata in vitro cell test; assay type: cell-based; conditions: 120 h, 20 ppm of active ingredient, liquid culture, 5 days incubation, spectrometric measurement of mycelium growth, read-out: efficacy (inhibition of fungal growth)
Method in brief: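 Liquid culture assay in which A. alternata spores in medium received DMSO-solubilized compound (final DMSO ≤1%). After 5 days, mycelium growth was measured spectrometrically. Inhibition was calculated against fungicide-free control wells.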

Alternaria brassicae = assay: In vivo preventive test on Alternaria brassicae (leaf spot on radish or cabbage); conditions: 500 ppm of active ingredient, preventive spray on radish or cabbage, evaluated 3 to 4 days after inoculation, read-out: efficacy
Method in brief: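 Young radish or cabbage plants were sprayed with compound dissolved in DMSO/acetone/Tween 80 and diluted in water; controls received solvent only. Inoculation by spraying A. brassicae spore suspension 24 h later, then 3–4 days at 20 °C and 100% relative humidity.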

[1] = Measurement of Log P values by HPLC on reversed phase columns (EEC directive 79/831 Annex V.A8); assay type: physicochemical; conditions: reversed phase HPLC column, method [a]: LC-UV, acidic range, 0.1% formic acid in water and acetonitrile as eluent
Method in brief: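 Reversed-phase HPLC with UV detection per EEC 79/831 Annex V.A8, linear 10–95% acetonitrile gradient. Aqueous eluent: 0.1% formic acid (acidic), 0.001 M ammonium acetate (neutral), or 0.1% phosphoric acid (acidic); multiple values in one method joined by "+".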

Pyrenophora teres [2] = assay: In vivo preventive test on Pyrenophora teres (net blotch on barley); conditions: 240 h, 500 ppm of active ingredient, preventive spray on barley, evaluated 10 days after inoculation, read-out: efficacy
Description: B-3. In Vivo Preventive Test on Pyrenophora Teres (Net Blotch on Barley) [table] The active ingredients were made soluble and homogenized in a mixture of Dimethyl sulfoxide/Acetone/Tween® 80 and then diluted in water to the desired concentration. The young plants of barley were treated by spraying the active ingredient prepared as described above. Control plants were treated only with an aqueous solution of Acetone/Dimethyl sulfoxide/Tween® 80. After 24 hours, the plants were contaminated by spraying the leaves with an aqueous suspension of Pyrenophora teres spores. The contaminated barley plants were incubated for 48 hours at 20° C. and at 100% relative humidity and then for 8 days at 20° C. and at 70-80% relative humidity.

[3] = test system: Colletotrichum lindemuthianum; assay: In vivo preventive test on Colletotrichum lindemuthianum (leaf spot on bean); conditions: 168 h, 500 ppm of active ingredient, preventive spray on bean, evaluated 7 days after inoculation, read-out: efficacy
Description: B-5. In Vivo Preventive Test on Colletotrichum lindemuthianum (Leaf Spot on Bean) [table] The active ingredients were made soluble and homogenized in a mixture of Dimethyl sulfoxide/Acetone/Tween® 80 and then diluted in water to the desired concentration. The young plants of bean were treated by spraying the active ingredient prepared as described above. Control plants were treated only with an aqueous solution of Acetone/Dimethyl sulfoxide/Tween® 80. After 24 hours, the plants were contaminated by spraying the leaves with an aqueous suspension of Colletotrichum lindemuthianum spores. The contaminated bean plants were incubated for 24 hours at 20° C. and at 100% relative humidity and then for 6 days at 20° C. and at 90% relative humidity.

Botrytis cinerea [4] = assay: B-11. Botrytis cinerea in vitro cell test; assay type: cell-based; conditions: 144 h, 20 ppm of active ingredient, 6 days incubation, liquid culture, absorbance, read-out: efficacy (inhibition of fungal growth)
Method in brief: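 B. cinerea spores were grown in liquid culture with compound (DMSO ≤1% final). Mycelium growth was measured spectrometrically after 6 days, with inhibition taken as absorbance relative to untreated control wells.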

Sphaerotheca fuliginea = assay: In vivo preventive test on Sphaerotheca fuliginea (powdery mildew on cucurbits); conditions: Podosphaera fuliginea, 192 h; 500 ppm of active ingredient; preventive spray on gherkin; evaluated 8 days after inoculation; read-out: efficacy
Method in brief: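 Young gherkin plants were sprayed with compound in DMSO/acetone/Tween 80 diluted in water. They were inoculated 24 h later with a spore suspension of Sphaerotheca fuliginea. Plants were then kept for 8 days at 20 °C and 70–80% relative humidity.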

Pyrenophora teres [5] = assay: B-10. Pyrenophora teres in vitro cell test; assay type: cell-based; conditions: 144 h, 20 ppm of active ingredient, 6 days incubation, liquid culture, absorbance, read-out: efficacy (inhibition of fungal growth)
Method in brief: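 Liquid-culture assay on a P. teres spore suspension with compounds added to the medium from DMSO solutions, final DMSO ≤1%. Mycelium growth read spectrometrically after 6 days. Inhibition calculated from absorbance against untreated control wells.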

[6] = test system: Colletotrichum lindemuthianum; assay: B-8. Colletotrichum lindemuthianum in vitro cell test; assay type: cell-based; conditions: 144 h, 20 ppm of active ingredient, 6 days incubation, liquid culture, absorbance, read-out: efficacy (inhibition of fungal growth)
Method in brief: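 Spore suspension of C. lindemuthianum in liquid medium exposed to DMSO-solubilized compounds (final DMSO ≤1%) for 6 days. Mycelial growth read by absorbance, with inhibition calculated relative to compound-free control wells.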

Botrytis cinerea [7] = assay: In vivo preventive test on Botrytis cinerea (grey mould); conditions: 500 ppm of active ingredient, preventive spray on gherkin or cabbage, evaluated 4 to 5 days after inoculation, read-out: efficacy
Method in brief: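 Young gherkin or cabbage plants were sprayed with compound in DMSO/acetone/Tween 80 diluted in water, then inoculated 24 hours later with a B. cinerea spore suspension. Incubation lasted 4 to 5 days: gherkin at 17° C., 90% relative humidity; cabbage at 20° C., 100% relative humidity.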

Row | chromatographic logP [1] | SMILES | inhibition at 20 ppm (Alternaria alternata) | pest or weed control at 500 ppm (Alternaria brassicae) | pest or weed control at 500 ppm (Pyrenophora teres [2]) | pest or weed control at 500 ppm [3] | inhibition at 20 ppm (Botrytis cinerea [4]) | pest or weed control at 500 ppm (Sphaerotheca fuliginea) | inhibition at 20 ppm (Pyrenophora teres [5]) | inhibition at 20 ppm [6] | pest or weed control at 500 ppm (Botrytis cinerea [7])
1 | 4.59 | Cc1ccc(C(F)(F)CNC(=O)c2c(Oc3cccc(C4CC4)c3)cnc3ccccc23)c(C)c1 [I-223] | 90 to 100% | 90 to 100% | 80 to 89% | 90 to 100% | 90 to 100% | 90 to 100% | 90 to 100% | 90 to 100% | 90 to 100%
2 | 4.33 | Cc1cc(Br)ccc1[C@@H](F)CNC(=O)c1c(Oc2cccc(Cl)c2)nnc2ccccc12 (racemic) [I-055] | 90 to 100% | 90 to 100% | 80 to 89% | 70 to 79% | 90 to 100% | 90 to 100% | – | 90 to 100% | 90 to 100%
3 | 4.01 | O=C(NC[C@H](F)c1ccc(Br)cc1Cl)c1c(Oc2cccc(C(F)F)c2)nnc2ccccc12 (racemic) [I-029] | 90 to 100% | 90 to 100% | 70 to 79% | 90 to 100% | – | 70 to 79% | – | 90 to 100% | 90 to 100%
4 | 3.73 | Cc1ccc(C(F)CNC(=O)c2c(Oc3cccc(Cl)c3F)nnc3c2CCC3)c(C)c1 (stereo not drawn) [I-236] | 80 to 89% | 90 to 100% | 90 to 100% | 90 to 100% | 90 to 100% | 90 to 100% | 90 to 100% | – | 90 to 100%
5 | 4.47 | O=C(NC[C@H](F)c1ccc(C2CC2)cc1Cl)c1c(Oc2cccc(Cl)c2)nnc2ccccc12 (racemic) [I-054] | 90 to 100% | 90 to 100% | 80 to 89% | 90 to 100% | 90 to 100% | 70 to 79% | – | 90 to 100% | 90 to 100%
6 | 4.2 | Cc1ccc(C(F)(F)CNC(=O)c2c(Oc3cccc(Cl)c3)nnc3ccccc23)c(C)c1 [I-024] | 90 to 100% | 90 to 100% | 70 to 79% | 90 to 100% | – | 90 to 100% | – | 90 to 100% | 90 to 100%
7 | 3.71 | Cc1ccc(C(F)(F)CNC(=O)c2c(Oc3cccc(C(F)(F)F)c3)cnc3c2OCCO3)c(C)c1 [I-109] | 90 to 100% | 90 to 100% | 90 to 100% | 90 to 100% | – | 90 to 100% | – | 90 to 100% | 90 to 100%
8 | 3.74 | Cc1ccc(C(F)(F)CNC(=O)c2c(Oc3cccc(C4CC4)c3F)nnc3c2N[C@@H](O)CC3)c(C)c1 (racemic) [I-116] | 90 to 100% | 90 to 100% | 80 to 89% | 90 to 100% | – | 90 to 100% | – | 90 to 100% | 90 to 100%
9 | 4.28 | Cc1ccc(C(F)(F)CNC(=O)c2c(Oc3cccc(C(F)(F)F)c3)nnc3c2CCCCC3)c(C)c1 [I-113, N-[2-(2,4-dimethylphenyl)-2,2-difluoro-ethyl]-3-[3-(trifluoro-methyl)phenoxy]-6,7,8,9-tetrahydro-5H-cyclohepta[c]pyridazine-4-carboxamide] | 90 to 100% | 90 to 100% | 70 to 79% | 80 to 89% | – | 90 to 100% | – | 90 to 100% | 90 to 100%
10 | 3.6 | Cc1ccc(CCNC(=O)c2c(Oc3cccc(C(F)(F)F)c3)cnc3c2OCCO3)c(C)c1 [I-110] | 90 to 100% | 90 to 100% | 90 to 100% | 90 to 100% | – | 90 to 100% | – | 90 to 100% | 90 to 100%
11 | 4.23 | Cc1cc(Cl)ccc1[C@@H](F)CNC(=O)c1c(Oc2cccc(Cl)c2)nnc2ccccc12 (racemic) [I-053] | 90 to 100% | 90 to 100% | 70 to 79% | 90 to 100% | 90 to 100% | 80 to 89% | – | 90 to 100% | 90 to 100%
12 | 3.94 | O=C(NCC(F)(F)c1ccc(Br)cc1Cl)c1c(Oc2cccc(C(F)(F)F)c2)cnc2c1OCCO2 [I-107, N-[2-(4-bromo-2-chloro-phenyl)-2,2-difluoro-ethyl]-7-[3-(tri-fluoromethyl)phenoxy]-2,3-dihydro-[1,4]dioxino[2,3-b]pyridine-8-carboxamide] | 90 to 100% | 90 to 100% | 80 to 89% | 90 to 100% | – | 90 to 100% | – | 90 to 100% | 90 to 100%
13 | 4.04 | Cc1ccc(CCNC(=O)c2c(Oc3cccc(C(F)(F)F)c3)cnc3ccoc23)c(C)c1 [I-068] | 90 to 100% | 90 to 100% | 80 to 89% | 90 to 100% | 90 to 100% | 90 to 100% | 90 to 100% | 90 to 100% | 90 to 100%
14 | 3.92 | Cc1ccc(C(F)(F)CNC(=O)c2c(Oc3cccc(C(F)F)c3)nnc3ccccc23)c(C)c1 [I-033] | 90 to 100% | 90 to 100% | 70 to 79% | 80 to 89% | – | 90 to 100% | – | 90 to 100% | 90 to 100%
15 | 4.63 | Cc1ccc(C(F)(F)CNC(=O)c2c(Oc3cccc(C4CC4)c3F)cnc3ccccc23)c(C)c1 [I-224] | 90 to 100% | 80 to 89% | 70 to 79% | 90 to 100% | 90 to 100% | 90 to 100% | 90 to 100% | 90 to 100% | 90 to 100%
16 | 3.28 | Cc1ccc(CCNC(=O)c2c(Oc3cccc(C(F)(F)F)c3)nnc3c2OCCO3)c(C)c1 [I-104] | 90 to 100% | 90 to 100% | 80 to 89% | 90 to 100% | – | 90 to 100% | – | 80 to 89% | 90 to 100%
